Earlier results on one compound are cited in US6846495B2, “Compositions having improved delivery of actives” (The Procter & Gamble Company, priority 1999, dated 2005).

For the data set the following is noted: intranasal formulations.

Turning to `COc1ccc2c(c1)[C@@]13CCCC[C@H]1[C@@H](C2)N(C)CC3` [Dextromethorphan, 3-methoxy-17-methylmorphinan], the bioavailability result is recorded as “substantial increases in bioavailability”.
